Measurements taken from patent US10537558B2 (Bantam Pharmaceutical, LLC, priority 2015, dated 2020).

Tested on: BJAB cells
Test: BJAB cell proliferation (Cell Titer Glo)
Assay type: cell-based
Conditions: Homo sapiens, read-out: EC50
In short: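 EC50 values come from non-linear regression of luminescence (Cell Titer Glo), expressed relative to untreated wells. BJAB cells were incubated roughly 72 h at 37 °C with serial compound dilutions carrying 0.1% final DMSO.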

COc1cc(F)cc(-c2c(C)nn(-c3nc(-c4ccc(Cl)c(Cl)c4)c(SC(C)C)s3)c2C(=O)O)c1 [Compound 164, 1-(4-(3,4-dichlorophenyl)-5-(isopropylthio)thiazol-2-yl)-4-(3-fluoro-5-methoxyphenyl)-3-methyl-1H-pyrazole-5-carboxylic Acid] and COc1cc(C)cc(-c2c(C)nn(-c3nc(-c4ccc(Cl)c(Cl)c4)c(SC(C)C)s3)c2C(=O)O)c1 [Compound 165, 1-(4-(3,4-dichlorophenyl)-5-(isopropylthio)thiazol-2-yl)-4-(3-methoxy-5-methylphenyl)-3-methyl-1H-pyrazole-5-carboxylic Acid] fall in the same range of EC50: 1 to 5 µM for the first, 1 to 5 µM for the second.

First: COc1cc(-c2c(C)nn(-c3nc(-c4ccc(Cl)c(Cl)c4)c(SC(C)C)s3)c2C(=O)O)ccn1 [Compound 166, 1-(4-(3,4-dichlorophenyl)-5-(isopropylthio)thiazol-2-yl)-4-(2-methoxypyridin-4-yl)-3-methyl-1H-pyrazole-5-carboxylic acid]
Second: Cc1cc(-c2c(C)nn(-c3nc(-c4ccc(Cl)c(Cl)c4)c(SC(C)C)s3)c2C(=O)O)ccn1 [Compound 167, 1-(4-(3,4-dichlorophenyl)-5-(isopropylthio)thiazol-2-yl)-3-methyl-4-(2-methylpyridin-4-yl)-1H-pyrazole-5-carboxylic Acid]
The EC50 of the first is higher: 5 to 10 µM for the first, 1 to 5 µM for the second. The second is the more potent here.

Cc1nn(-c2nc(-c3cccc4[nH]ccc34)c(SC(C)C)s2)c(C(=O)O)c1-c1cccc(F)c1 [Compound 168, 1-(4-(1H-indol-4-yl)-5-(isopropylthio)thiazol-2-yl)-4-(3-fluorophenyl)-3-methyl-1H-pyrazole-5-carboxylic acid] and Cc1nn(-c2nc(-c3cccc(F)c3)c(SC(C)C)s2)c(C(=O)O)c1-c1cccc2[nH]ccc12 [Compound 169, 1-(4-(3-fluorophenyl)-5-(isopropylthio)thiazol-2-yl)-4-(1H-indol-4-yl)-3-methyl-1H-pyrazole-5-carboxylic acid] cannot be ordered by EC50: over 25 µM for the first, over 25 µM for the second.

First: Cc1nn(-c2nc(-c3ccc4[nH]ccc4c3)c(SC(C)C)s2)c(C(=O)O)c1-c1cccc(F)c1 [Compound 170, 1-(4-(1H-indol-5-yl)-5-(isopropylthio)thiazol-2-yl)-4-(3-fluorophenyl)-3-methyl-1H-pyrazole-5-carboxylic acid]
Second: Cc1nn(-c2nc(-c3ccc(F)cc3)c(SC(C)C)s2)c(C(=O)O)c1-c1cccc(F)c1 [Compound 186, 4-(3-fluorophenyl)-1-(4-(4-fluorophenyl)-5-(isopropylthio)thiazol-2-yl)-3-methyl-1H-pyrazole-5-carboxylic Acid]
The EC50 of the first is higher: over 25 µM for the first, 1 to 5 µM for the second. The second is the more potent here.

First: Cc1nn(-c2nc(C#CC3CC3)c(SC(C)C)s2)c(C(=O)O)c1-c1cccc(F)c1 [Compound 171, 1-(4-(cyclopropylethynyl)-5-(isopropylthio)thiazol-2-yl)-4-(3-fluorophenyl)-3-methyl-1H-pyrazole-5-carboxylic acid]
Second: Cc1nn(-c2nc(C3=CCCC3)c(SC(C)C)s2)c(C(=O)O)c1-c1cccc(F)c1 [Compound 184, 1-(4-(cyclopent-1-en-1-yl)-5-(isopropylthio)thiazol-2-yl)-4-(3-fluorophenyl)-3-methyl-1H-pyrazole-5-carboxylic acid]
The EC50 of the first is higher: over 25 µM for the first, 10 to 25 µM for the second.

First: Cc1nn(-c2nc(C3CC3)c(SC(C)C)s2)c(C(=O)O)c1C1CC1 [Compound 172, 4-cyclopropyl-1-(4-cyclopropyl-5-(isopropylthio)thiazol-2-yl)-3-methyl-1H-pyrazole-5-carboxylic Acid]
Second: Cc1nn(-c2nc(-c3ccc(Cl)c(Cl)c3)c(SC(C)C)s2)c(C(=O)O)c1C1CC1 [Compound 173, 4-cyclopropyl-1-(4-(3,4-dichlorophenyl)-5-(isopropylthio)thiazol-2-yl)-3-methyl-1H-pyrazole-5-carboxylic Acid]
The EC50 of the first is higher: over 25 µM for the first, 10 to 25 µM for the second. The second is the more potent here.

First: Cc1nn(-c2nc(-c3ccc(Cl)c(Cl)c3)c(SC(C)C)s2)c(C(=O)O)c1-c1cc(Cl)cc(OC(C)C)c1 [Compound 174, 4-(3-chloro-5-isopropoxyphenyl)-1-(4-(3,4-dichlorophenyl)-5-(isopropylthio)thiazol-2-yl)-3-methyl-1H-pyrazole-5-carboxylic Acid]
Second: COCCOc1cc(-c2c(C)nn(-c3nc(-c4ccc(Cl)c(Cl)c4)c(SC(C)C)s3)c2C(=O)O)cc(C)n1 [Compound 181, 1-(4-(3,4-dichlorophenyl)-5-(isopropylthio)thiazol-2-yl)-4-(2-(2-methoxyethoxy)-6-methylpyridin-4-yl)-3-methyl-1H-pyrazole-5-carboxylic Acid]
The EC50 of the first is lower: 1 to 5 µM for the first, 10 to 25 µM for the second. The first is the more potent here.

Compared with Cc1nn(-c2nc(-c3cccc(Cl)c3)c(SC(C)C)s2)c(C(=O)O)c1-c1cccc(F)c1 [Compound 176, 1-(4-(3-chlorophenyl)-5-(isopropylthio)thiazol-2-yl)-4-(3-fluorophenyl)-3-methyl-1H-pyrazole-5-carboxylic Acid], Cc1nn(-c2nc(-c3ccc(Cl)cc3)c(SC(C)C)s2)c(C(=O)O)c1-c1cccc(F)c1 [Compound 177, 1-(4-(4-chlorophenyl)-5-(isopropylthio)thiazol-2-yl)-4-(3-fluorophenyl)-3-methyl-1H-pyrazole-5-carboxylic Acid] is lower in EC50: 5 to 10 µM for the first, under 1 µM for the second.

First: Cc1nn(-c2nc(-c3ccc(Cl)cc3Cl)c(SC(C)C)s2)c(C(=O)O)c1-c1cccc(F)c1 [Compound 178, 1-(4-(2,4-dichlorophenyl)-5-(isopropylthio)thiazol-2-yl)-4-(3-fluorophenyl)-3-methyl-1H-pyrazole-5-carboxylic Acid]
Second: Cc1nn(-c2nc(C3=CCCCC3)c(SC(C)C)s2)c(C(=O)O)c1-c1cccc(F)c1 [Compound 183, 1-(4-(cyclohex-1-en-1-yl)-5-(isopropylthio)thiazol-2-yl)-4-(3-fluorophenyl)-3-methyl-1H-pyrazole-5-carboxylic Acid]
The EC50 of the first is lower: 1 to 5 µM for the first, 5 to 10 µM for the second. The first is the more potent here.

First: Cc1nn(-c2nc(-c3ccc(-c4cccc(F)c4)nc3)c(SC(C)C)s2)c(C(=O)O)c1Br [Compound 179, 4-bromo-1-(4-(6-(3-fluorophenyl)pyridin-3-yl)-5-(isopropylthio)thiazol-2-yl)-3-methyl-1H-pyrazole-5-carboxylic Acid]
Second: COc1cc(Cl)cc(-c2c(C)nn(-c3nc(-c4ccccc4)c(SC(C)C)s3)c2C(=O)O)c1 [Compound 185, 4-(3-chloro-5-methoxyphenyl)-1-(5-(isopropylthio)-4-phenylthiazol-2-yl)-3-methyl-1H-pyrazole-5-carboxylic Acid]
The EC50 of the first is higher: 25 to 50 µM for the first, 10 to 25 µM for the second.

Cc1cc(-c2c(C)nn(-c3nc(-c4ccc(Cl)c(Cl)c4)c(SC(C)C)s3)c2C(=O)O)cc(O[C@@H]2CCOC2)n1 [Compound 180, (R)-1-(4-(3,4-dichlorophenyl)-5-(isopropylthio)thiazol-2-yl)-3-methyl-4-(2-methyl-6-((tetrahydrofuran-3-yl)oxy)pyridin-4-yl)-1H-pyrazole-5-carboxylic Acid] and Cc1cc(-c2c(C)nn(-c3nc(-c4ccc(Cl)c(Cl)c4)c(SC(C)C)s3)c2C(=O)O)cc(O[C@H]2CCOC2)n1 [Compound 182, (S)-1-(4-(3,4-dichlorophenyl)-5-(isopropylthio)thiazol-2-yl)-3-methyl-4-(2-methyl-6-((tetrahydrofuran-3-yl)oxy)pyridin-4-yl)-1H-pyrazole-5-carboxylic acid] fall in the same range of EC50: 10 to 25 µM for the first, 10 to 25 µM for the second.
